Test [1] has as its target T1, vasopressin V1 receptor subtype in human platelet membranes (Homo sapiens, UniProt P37288).
T1 construct: tissue Hudson Valley Blood Services; host or cells: human blood platelets (frozen platelet rich plasma)
In words: Binding to Vasopressin V1 Receptor Subtype in Human Platelet Membranes. The settings on record: for IC50: human platelet V1 (*). How it is done:
(a) Platelet Membrane Preparation:
Frozen platelet rich plasma (PRP), received from the Hudson Valley Blood Services, are thawed to room temperature. (Platelet Source: Hudson Valley Blood Services, Westchester Medical Center, Valhalla, N.Y.). The tubes containing the PRP are centrifuged at 16,000×g for 10 min. at 4° C. and the supernatant fluid discarded. The platelets resuspended in an equal volume of 50.0 mM Tris.HCl, pH 7.5 containing 120 mM NaCl and 20.0 mM EDTA. The suspension is recentrifuged at 16,000×g for 10 min. This washing step is repeated one more time. The wash discarded and the lysed pellets homogenized in low ionic strength buffer of Tris.HCl, 5.0 mM, pH 7.5 containing 5.0 mM EDTA. The homogenate is centrifuged at 39,000×g for 10 min. The resulting pellet is resuspended in Tris.HCl buffer, 70.0 mM, pH 7.5 and recentrifuged at 39,000×g for 10 min. The final pellet is resuspended in 50.0 mM Tris.HCl buffer pH 7.4 containing 120 mM NaCl and 5.0 mM KCl to give 1.0-2.0 mg protein per ml of suspension.
(b) Binding to Vasopressin V1 Receptor Subtype in Human Platelet Membranes:
In wells of a 96 well format microtiter plate, add 100 μl of 50.0 mM Tris.HCl buffer containing 0.2% BSA and a mixture of protease inhibitors (aprotinin, leupeptin etc.). Then add 20 μl of [^3 H]Ligand (Manning or Arg^8 Vasopressin), to give final concentrations ranging from 0.01 to 10.0 nM. Initiate the binding by adding 80.0 μl of platelet suspension (approx. 100 μg protein). Mix all reagents by pipetting the mixture up and down a few times. Non specific binding is measured in the presence of 1.0 μM of unlabeled ligand (Manning or Arg^8 Vasopressin). Let the mixture stand undisturbed at room temperature for ninety (90) min. Upon this time, rapidly filter off the incubate under vacuum suction over GF/B filters, using a Brandel Harvester. The radioactivity caught on the filter disks is determined by the addition of liquid scintillant and counting in a liquid scintillator.

Test [2] addresses T2, human V2 vasopressin receptor (Homo sapiens, UniProt P30518).
T2 construct: expressed in transfected cells; host or cells: mouse fibroblast cell line LV-2
In words: Binding to Membranes of Mouse Fibroblast Cell Line (LV-2) Transfected with the cDNA Expressing the Human V2 Vasopressin Receptor. Particulars: LV-2 cells. The procedure:
Flasks of 175 ml capacity, containing attached cells grown to confluence, are cleared of culture medium by aspiration. The flasks containing the attached cells are rinsed with 2×5 ml of phosphate buffered saline (PBS) and the liquid aspirated off each time. Finally, 5 ml of an enzyme free dissociation Hank's based solution (Specialty Media, Inc., Lafayette, N.J.) is added and the flasks are left undisturbed for 2 min. The content of all flasks is poured into a centrifuge tube and the cells pelleted at 300×g for 15 min. The Hank's based solution is aspirated off and the cells homogenized with a polytron at setting #6 for 10 sec in 10.0 mM Tris.HCl buffer, pH 7.4 containing 0.25M sucrose and 1.0 mM EDTA. The homogenate is centrifuged at 1500×g for 10 min to remove ghost membranes. The supernatant fluid is centrifuged at 100,000×g for 60 min to pellet the receptor protein. Upon completion, the pellet is resuspended in a small volume of 50.0 mM Tris.HCl buffer, pH 7.4. The protein content is determined by the Lowry method and the receptor membranes are suspended in 50.0 mM Tris.HCl buffer containing 0.1 mM phenylmethylsulfonylfluoride (PMSF) and 0.2% bovine serum albumin (BSA) to give 2.5 mg receptor protein per ml of suspension.
For binding experiments, the following is added in μl volume to wells of a 96 well format of a microtiter plate: 100.0 μl of 100.0 mM Tris.HCl buffer containing 0.2% heat inactivated BSA, 10.0 mM MgCl2 and a mixture of protease inhibitors: leupeptin, 1.0 mg %; aprotinin, 1.0 mg %; 1,10-phenanthroline, 2.0 mg %; trypsin inhibitor, 10.0 mg % and 0.1 mM PMSF., 20.0 μl of [^3 H] Arginine^8, vasopressin (S.A. 75.0 Ci/mmole) at 0.8 nM and the reaction initiated by the addition of 80.0 μl of tissue membranes ([…]).
The plates are left undisturbed on the bench top for 120 min to reach equilibrium. Non specific binding is assessed in the presence of 1.0 μM of unlabeled ligand, added in 20 μl volume. For test compounds, these are solubilized in 50% dimethylsulfoxide (DMSO) and added in 20.0 μl volume to a final incubation volume of 200 μl. Upon completion of binding, the content of each well is filtered off, using a Brandel® cell Harvester (Gaithersburg, Md.). The radioactivity trapped on the filter disk by the ligand-receptor complex is assessed by liquid scintillation counting in a Packard LS Counter, with an efficiency of 65% for tritium.

T2 sequence (P30518 whole entry): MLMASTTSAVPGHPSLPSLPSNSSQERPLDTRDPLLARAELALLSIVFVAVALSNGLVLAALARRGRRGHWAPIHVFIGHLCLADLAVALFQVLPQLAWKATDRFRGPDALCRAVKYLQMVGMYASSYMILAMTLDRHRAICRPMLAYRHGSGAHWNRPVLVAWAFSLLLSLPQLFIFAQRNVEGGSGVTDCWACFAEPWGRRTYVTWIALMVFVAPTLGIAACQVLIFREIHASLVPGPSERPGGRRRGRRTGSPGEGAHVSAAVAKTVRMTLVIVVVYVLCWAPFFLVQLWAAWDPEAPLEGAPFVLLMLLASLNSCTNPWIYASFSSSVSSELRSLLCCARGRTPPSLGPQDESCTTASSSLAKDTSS
T1 sequence (P37288 whole entry): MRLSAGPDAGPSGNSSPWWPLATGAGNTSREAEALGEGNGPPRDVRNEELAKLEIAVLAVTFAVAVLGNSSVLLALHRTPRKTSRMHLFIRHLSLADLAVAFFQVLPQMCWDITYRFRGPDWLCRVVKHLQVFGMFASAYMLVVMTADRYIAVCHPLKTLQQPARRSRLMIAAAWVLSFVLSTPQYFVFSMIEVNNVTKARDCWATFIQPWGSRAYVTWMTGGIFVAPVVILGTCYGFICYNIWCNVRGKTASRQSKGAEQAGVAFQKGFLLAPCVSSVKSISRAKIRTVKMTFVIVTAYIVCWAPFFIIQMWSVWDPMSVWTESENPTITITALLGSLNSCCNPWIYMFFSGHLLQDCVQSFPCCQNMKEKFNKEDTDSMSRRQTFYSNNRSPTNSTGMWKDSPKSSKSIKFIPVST

What is called IC50 is the midpoint of a concentration-inhibition curve. High values mean weaker potency in that assay, low ones greater potency in that assay. Take `COc1cc(C(=O)N2Cc3ccccc3Cc3ccccc32)ccc1NC(=O)c1cc(F)ccc1C` [Example 261, N-[4-[(6,11-Dihydro-5H-dibenz[b,e]azepin-5-yl)-carbonyl]-2-methoxyphenyl]-2-methyl-5-fluorobenzamide]: the IC50 in test [1] was found to be 21 nM; in test [2] it was 16 nM.

Take `COc1cc(C(=O)N2Cc3ccccc3Cc3ccccc32)ccc1NC(=O)c1ccc(Cl)cc1Cl` [Example 263, N-[4-[(6,11-Dihydro-5H-dibenz[b,e]azepin-5-yl)-carbonyl]-2-methoxyphenyl]-2,4-dichlorobenzamide]: the half-maximal inhibitory concentration (IC50) was 430 nM in test [1] and 47 nM in test [2].

The compound `Cc1ccc(F)cc1C(=O)Nc1ccc(C(=O)N2CCc3c[nH]nc3-c3ccccc32)cc1` [Example 584, N-[4-[(4.5-Dihydropyrazolo[4,3-d][1]benzazepin-6(2H)-yl)carbonyl]phenyl]-5-fluoro-2-methylbenzamide] came in with an IC50 in test [1] of 28 nM.

With `COc1cc(C(=O)N2Cc3ccccc3Cc3ccccc32)ccc1NC(=O)c1ccccc1C` [Example 257, N-[4-[(6,11-Dihydro-5H-dibenz[b,e]azepin-5-yl)-carbonyl]-2-methoxyphenyl]-2-methylbenzamide], the values for the IC50 in test [1] and in test [2] were 16 nM and 20 nM, respectively.

As for `Cc1nc2c(s1)CCN(C(=O)c1ccc(NC(=O)c3cc(F)ccc3C)cc1)c1ccccc1-2` [Example 534], the IC50 was 90 nM in test [1] and 73 nM in test [2].

Take `Cc1nc2c(s1)CCN(C(=O)c1ccc(NC(=O)c3ccc(Cl)cc3Cl)cc1)c1ccccc1-2` [Example 455, N-[4-(4,5-Dihydro-2-methyl-6H-thiazolo[5,4-d][1]-benzazepin-6-yl)carbonyl1phenyl]-2,4-dichlorobenzamide]: the half-inhibitory concentration (IC50) turned out to be 250 nM in test [1] and 100 nM in test [2].

Regarding `CC(C)COc1ccc([N+](=O)[O-])cc1C(=O)Nc1ccc(C(=O)N2Cc3ccccc3Cc3ccccc32)cc1` [Example 453], in test [1] (1.5 h, 10 μM, human platelet (*), read-out: *V1, % at concentration in brackets), the inhibition at 10 µM came to 14%.

As to `Cc1ccc(F)cc1C(=O)Nc1ccc(C(=O)N2CCc3c[nH]nc3-c3ccccc32)c(Cl)c1` [Example 581], the IC50 in test [1] amounted to 150 nM; in test [2] it was 2.2 nM.

On to `Cc1c(F)cccc1C(=O)Nc1ccc(C(=O)N2Cc3ccccc3Cc3ccccc32)cc1Cl` [Example 262, N-[4-[(6,11-Dihydro-5H-dibenz[b,e]azepin-5-yl)-carbonyl]-2-chlorophenyl]-2-methyl-3-fluorobenzamide], for which the IC50 in test [1] amounted to 620 nM; in test [2], 250 nM.

(Values after US5834461A, “Tricyclic benzazepine vasopressin antagonists” (American Cyanamid Company, priority 1997, dated 1998).)
